Common to all, as to type: in vivo
For experiment [1], the system named is 3rd-instar larvae of Spodoptera frugiperda. Kind of experiment: Joint toxicity of I-72 + spinosad, corn leaf dipping, Example 10, Table 10. To be noted: Spodoptera frugiperda, foliar, 72 h, A = compound I-72, B = spinosad, read-out: LC50. The text has this:
Test subject: 3rd-instar larvae of Spodoptera frugiperda, a sensitive strain reared indoors.
Experimental method: the dipping method was adopted. The corn leaves cultivated in the greenhouse were taken, cut into leaf segments of 5 cm long, dipped in the prepared pesticide solution for 10 s, and then cut into small pieces of 1.5 cm×1.5 cm after natural air-drying in the shade. These pieces were placed in a 24-well culture plate, and the standard test insects were introduced, with 48 insects for each treatment. The treated test insects were placed in an observation room under certain conditions. The reaction of the test insects was regularly observed, and the number of dead and live insects was investigated 72 h later.
The test conditions, the preparation of the pesticide solution and the evaluation method were the same as those in Example 1.

In experiment [2] the test system is 3rd-instar larvae of Chilo suppressalis (Walker). The experiment can be described thus: Joint toxicity of I-72 + methoxyfenozide, Example 53, Table 53. To be noted: A = compound I-72, B = methoxyfenozide, rice stem dipping, 72 hours, read-out: LC50. The method, then:
Test target: 3rd-instar larvae of Chilo suppressalis (Walker).
Preparation of the pesticide solution: according to different test requirements, the test samples were accurately weighed respectively with an electronic analytical balance. The technical pesticides were dissolved in acetone, and then diluted with 0.1% Tween 80 water into a series of pesticide solutions with a certain concentration gradient according to the experimental design dosage.
Experimental method: first, tender rice stems were selected and dipped in the prepared pesticide solution for 10 s in the order from low dosage to high dosage according to the experimental design. After natural air-drying in the shade, they were placed in a 9-cm-diameter Petri dish with filter paper, and uniform and healthy test insects were introduced, with 10 insects for each treatment and 3 replicates for each treatment. In addition, a blank control was set up.
The treated test materials were placed in an observation room, and the temperature, humidity and illumination of the observation room could be adjusted as needed. The number of dead and live insects was investigated 72 hours later. […] Then, the co-toxicity coefficient of each ratio was calculated using the Sun Y-P method to evaluate the mixing effect (the same as in Example 1).

The subject of another experiment is Empoasca pirisuga. The experiment can be described thus: Field efficacy trial of I-72 and Beauveria bassiana in a tea garden, Example 88, Table 88. To be noted: spraying. The method, then: This trial was performed in a tea garden in Yuhang District, Hangzhou. The spraying method was used for pesticide application. The investigation method was to take samples at 5 points, with 2 fixed plants at each point. A total of 10 plants were investigated in each plot, and the trial was replicated four times. The number of Empoasca vitis nymphs on the back of 100 tender leaves in each plot was randomly investigated. The amount of the pesticide solution sprayed was 75 L per mu. The base number was investigated before the pesticide application, and the number of live Empoasca pirisuga in each treatment sample point was investigated 3, 7 and 14 days after the pesticide application. The calculation method for the efficacy of the test pesticides was the same as that in Example 38.
Test pesticides: A: wettable powder of Beauveria bassiana with 40 billion spores/gram (Jiangxi Tianren Ecology Co., Ltd.); and B: compound I-72 (dissolved in acetone, 0.1% Tween 80 was added, and a 10% stock solution was prepared for use).

A word on the LC50: it is the concentration that kills 50% of the test population. Turning to `CN(C(=O)c1ccc2c(c1)OC(F)(F)O2)c1cccc(C(=O)Nc2c(Br)cc(C(F)(C(F)(F)F)C(F)(F)F)cc2OC(F)F)c1F` [Compound I-72], the LC50 in experiment [1] came to 0.0777 µg/mL; in experiment [2] it was 1.02 µg/mL. For the same molecule, the “Control efficacy 3 days after pesticide application” value in the experiment on Empoasca pirisuga (dose 15 ml) turned out to be 57.0%; in the experiment on Empoasca pirisuga (dose 30 ml) it was 57.5%; in the experiment on Empoasca pirisuga (dose 45 ml), 62.5%. The figures for the “Control efficacy 7 days after pesticide application” value in the experiment on Empoasca pirisuga (dose 15 ml), in the experiment with Empoasca pirisuga (dose 30 ml) and in the experiment on Empoasca pirisuga (dose 45 ml) were 75.8%, 77.7% and 78.1%, respectively. Also, the “Control efficacy 14 days after pesticide application” value in the experiment on Empoasca pirisuga (dose 15 ml) was found to be 74.2%; in the experiment with Empoasca pirisuga (dose 30 ml) it was 79.3%; in the experiment with Empoasca pirisuga (dose 45 ml), 78.9%.

The record behind these values is patent publication US20260198495A1, “BINARY INSECTICIDE COMPOSITION AND USE THEREOF” (SHENYANG SINOCHEM AGROCHEMICALS R & D CO., LTD., priority 2022, published 2026).
